Data as given in patent publication US7326721B2 (Hypnion, Inc., priority 2003, dated 2008).
Values joined by “and” are separate entries in the source; they are usually repeats but may differ in a detail not shown here. Equal values may be shown once.

Assays:
[1] = system: Muscarinic, Non-selective, Peripheral; assay: Table 12 panel: Muscarinic, Peripheral; format: binding; details: 1.0E−6, average N=2
Excerpt: (§1) The percentage inhibition (average; N=2) for these receptors is shown below in Table 12.
(§2) Values in Table 12 are expressed as percentage inhibition of specific binding, and these values represent the average of replicate tubes at each of the concentrations tested.

[2] = system: Opioid, Non-selective; assay: Table 12 panel: Opioid; format: binding; details: 1.0E−6, average N=2
Excerpt: as §1, §2

[3] = biological target: Histamine, H2 (Homo sapiens, UniProt P25021); assay: Table 12 panel: Histamine, H2; details: 1.0E−6, average N=2, read-out: percentage inhibition of specific binding
Histamine, H2, sequence (P25021 whole entry): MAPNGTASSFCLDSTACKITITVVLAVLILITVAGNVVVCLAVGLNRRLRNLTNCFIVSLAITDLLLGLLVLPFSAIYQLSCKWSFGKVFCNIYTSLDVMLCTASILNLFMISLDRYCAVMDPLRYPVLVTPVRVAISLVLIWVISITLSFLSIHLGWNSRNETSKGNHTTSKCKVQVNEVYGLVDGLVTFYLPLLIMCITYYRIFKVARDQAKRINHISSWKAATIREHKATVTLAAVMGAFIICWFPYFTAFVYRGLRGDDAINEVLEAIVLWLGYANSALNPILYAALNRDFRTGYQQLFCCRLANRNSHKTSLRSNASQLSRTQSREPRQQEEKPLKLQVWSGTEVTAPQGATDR
Excerpt: as §1, §2

[4] = biological target: Cholecystokinin, CCK1 (CCKA) (Homo sapiens, UniProt P32238); assay: Table 12 panel: CCK1; details: 1.0E−6, average N=2, read-out: percentage inhibition of specific binding
Cholecystokinin, CCK1 (CCKA), sequence (P32238 whole entry): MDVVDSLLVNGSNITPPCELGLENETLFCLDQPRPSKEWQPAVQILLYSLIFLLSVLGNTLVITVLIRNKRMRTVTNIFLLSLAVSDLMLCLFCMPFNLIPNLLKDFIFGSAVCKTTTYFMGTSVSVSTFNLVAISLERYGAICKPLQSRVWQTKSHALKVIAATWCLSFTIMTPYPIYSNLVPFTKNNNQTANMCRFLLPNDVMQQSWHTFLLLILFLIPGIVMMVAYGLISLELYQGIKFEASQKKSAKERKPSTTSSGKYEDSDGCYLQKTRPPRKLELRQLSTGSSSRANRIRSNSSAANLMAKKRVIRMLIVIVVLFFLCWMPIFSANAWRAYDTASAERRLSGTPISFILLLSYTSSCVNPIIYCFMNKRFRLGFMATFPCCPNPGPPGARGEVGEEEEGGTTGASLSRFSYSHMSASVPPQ
Excerpt: as §1, §2

[5] = system: Serotonin, Non-selective; assay: Table 12 panel: Serotonin, Non-selective; format: binding; details: 1.0E−6, average N=2
Excerpt: as §1, §2

[6] = system: Dopamine, Non-selective; assay: Table 12 panel: Dopamine, Non-selective; format: binding; details: 1.0E−6, average N=2
Excerpt: as §1, §2

[7] = system: T1, Adrenergic, Alpha 1, Non-selective; assay: Table 12 panel: Adrenergic, Alpha 1; format: binding; details: Adrenergic, Alpha 1; 1.0E−6; average N=2
T1 construct: other: Adrenergic, Alpha 1; 1.0E−6; average N=2

[8] = system: Adenosine, Non-selective; assay: Table 12 panel: Adenosine, Non-selective; format: binding; details: 1.0E−6, average N=2
Excerpt: as §1, §2

[9] = biological target: Endothelin, ET-B (h) (Homo sapiens, UniProt P24530); assay: Table 12 panel: Endothelin, ET-B; details: 1.0E−6, average N=2, read-out: percentage inhibition of specific binding
Endothelin, ET-B (h), sequence (P24530 27-442): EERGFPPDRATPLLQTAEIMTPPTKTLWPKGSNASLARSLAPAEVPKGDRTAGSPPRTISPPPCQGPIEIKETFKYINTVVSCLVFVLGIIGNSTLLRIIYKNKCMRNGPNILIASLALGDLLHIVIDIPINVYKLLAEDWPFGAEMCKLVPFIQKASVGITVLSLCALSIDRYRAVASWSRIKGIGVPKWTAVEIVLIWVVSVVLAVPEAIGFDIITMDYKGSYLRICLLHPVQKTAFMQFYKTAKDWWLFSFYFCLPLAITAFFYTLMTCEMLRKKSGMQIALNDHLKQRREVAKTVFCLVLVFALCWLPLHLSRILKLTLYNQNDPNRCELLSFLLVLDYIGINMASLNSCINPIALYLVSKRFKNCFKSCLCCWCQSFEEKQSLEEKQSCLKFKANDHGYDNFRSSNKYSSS
Excerpt: as §1, §2

[10] = biological target: Angiotensin II, AT2 (Homo sapiens, UniProt P50052); assay: Table 12 panel: Angiotensin II, AT2; details: 1.0E−6, average N=2, read-out: percentage inhibition of specific binding
Angiotensin II, AT2, sequence (P50052 whole entry): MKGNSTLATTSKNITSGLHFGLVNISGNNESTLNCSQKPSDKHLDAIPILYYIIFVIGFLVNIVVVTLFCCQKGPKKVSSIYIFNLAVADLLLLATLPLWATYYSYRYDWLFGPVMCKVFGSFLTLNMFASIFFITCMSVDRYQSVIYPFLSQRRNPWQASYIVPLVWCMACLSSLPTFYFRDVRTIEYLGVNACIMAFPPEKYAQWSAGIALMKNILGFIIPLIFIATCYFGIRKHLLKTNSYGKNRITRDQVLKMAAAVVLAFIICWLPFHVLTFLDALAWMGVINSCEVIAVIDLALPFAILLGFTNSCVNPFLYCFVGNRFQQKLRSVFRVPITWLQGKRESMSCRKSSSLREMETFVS
Excerpt: as §1, §2

[11] = biological target: Norepinephrine Transporter (Homo sapiens, UniProt P23975); assay: Table 12 panel: Norepinephrine Transporter; details: 1.0E−6, average N=2, read-out: percentage inhibition of specific binding
Norepinephrine Transporter, sequence (P23975 whole entry, species assumed): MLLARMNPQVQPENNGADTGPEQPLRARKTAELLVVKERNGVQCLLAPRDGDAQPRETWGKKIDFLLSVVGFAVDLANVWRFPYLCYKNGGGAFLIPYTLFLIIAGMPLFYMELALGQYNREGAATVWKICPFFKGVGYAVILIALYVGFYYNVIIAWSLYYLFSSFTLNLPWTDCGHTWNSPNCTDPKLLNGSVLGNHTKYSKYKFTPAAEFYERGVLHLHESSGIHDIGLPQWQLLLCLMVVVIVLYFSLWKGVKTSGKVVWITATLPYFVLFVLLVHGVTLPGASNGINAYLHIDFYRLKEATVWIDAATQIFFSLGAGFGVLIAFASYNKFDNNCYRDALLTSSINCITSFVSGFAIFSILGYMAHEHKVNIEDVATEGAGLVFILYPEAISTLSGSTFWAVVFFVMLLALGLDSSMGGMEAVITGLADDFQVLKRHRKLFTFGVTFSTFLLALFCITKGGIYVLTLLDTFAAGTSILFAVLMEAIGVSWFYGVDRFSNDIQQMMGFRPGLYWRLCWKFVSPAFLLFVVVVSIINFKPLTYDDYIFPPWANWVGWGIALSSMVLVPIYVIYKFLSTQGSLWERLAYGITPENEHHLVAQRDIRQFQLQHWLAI
Excerpt: as §1, §2

[12] = system: Corticotropin Releasing Factor, Non-selective; assay: Table 12 panel: CRF; format: binding; details: 1.0E−6, average N=2
Excerpt: as §1, §2

[13] = Urinary excretion in animal species; format: in vivo; details: animal species administered HY2901
[14] = system: Wistar rats; assay: Acetic acid-induced abdominal spasm test in the rat; format: in vivo
Protocol: The objective of this example was to determine the analgesic activity of HY-2901 (Also referred to herein as Compound 49a) following oral administration. Analgesic activity was assessed abdominal spasm test in the rat and mouse. Analgesic activity is also assessed using the tail clip test in the mouse, tail flick test in the rat, Randall-Selitto test in the rat and comparisons are made with a vehicle control group. Reference compounds ASA (acetylsalicylic acid) and morphine are also included for comparison.
The tail clip and tail flick test provide useful information about the central analgesic activity of the test article. The Randall-Selitto test provides information on the compound's ability to modify a hyperalgesic state and the abdominal spasm test provides information on the peripheral analgesic activity of the test article. The test article is administered by oral gavage, this being the intended clinical route of administration. The dose levels employed are expected to encompass the efficacy dose and provide an adequate safety margin.
All formulations were prepared on each day of dosing. The test article (HY-2901) was formulated in 0.25% (w/v) MC at the highest concentration required. Lower doses were obtained by serial dilution of the highest concentration using 0.25% (w/v) MC. The reference compound, acetylsalicylic acid, was formulated in 0.25% (w/v) MC at the required concentrations. Brewer's yeast was formulated in water for injection at the required concentration. Acetic acid was diluted with water for injection to provide the required concentration for administration.
An adequate number of male Crl:CD-I(ICR)BR mice and Wistar rats were obtained from Charles River (UK) Ltd., Margate, Kent. The mice were approximately 4 weeks of age and weigh between 18 and 22 g on arrival. The rats were approximately 5 weeks of age and weigh between 150 and 170 g on arrival. The age and weight of the animals at the start of the study was documented in the raw data and final report,
Each animal received a single administration of vehicle, test article or reference compound by oral gavage, using a constant dose volume […]. Individual dose volumes were based on individual body weights obtained on the day of dosing.
Forty-five minutes following oral administration each animal received a 1 mL intraperitoneal injection of 1% acetic acid. Animals were immediately placed into individual observation chambers and the number of abdominal spasms elicited over the subsequent 25-minute period was recorded.

[15] = Brain levels of parent drug after oral administration; details: rat, 3 mg/kg
[16] = biological target: hERG (Homo sapiens, UniProt Q12809); assay: in vitro; details: pH 7.4
hERG, sequence (Q12809 whole entry): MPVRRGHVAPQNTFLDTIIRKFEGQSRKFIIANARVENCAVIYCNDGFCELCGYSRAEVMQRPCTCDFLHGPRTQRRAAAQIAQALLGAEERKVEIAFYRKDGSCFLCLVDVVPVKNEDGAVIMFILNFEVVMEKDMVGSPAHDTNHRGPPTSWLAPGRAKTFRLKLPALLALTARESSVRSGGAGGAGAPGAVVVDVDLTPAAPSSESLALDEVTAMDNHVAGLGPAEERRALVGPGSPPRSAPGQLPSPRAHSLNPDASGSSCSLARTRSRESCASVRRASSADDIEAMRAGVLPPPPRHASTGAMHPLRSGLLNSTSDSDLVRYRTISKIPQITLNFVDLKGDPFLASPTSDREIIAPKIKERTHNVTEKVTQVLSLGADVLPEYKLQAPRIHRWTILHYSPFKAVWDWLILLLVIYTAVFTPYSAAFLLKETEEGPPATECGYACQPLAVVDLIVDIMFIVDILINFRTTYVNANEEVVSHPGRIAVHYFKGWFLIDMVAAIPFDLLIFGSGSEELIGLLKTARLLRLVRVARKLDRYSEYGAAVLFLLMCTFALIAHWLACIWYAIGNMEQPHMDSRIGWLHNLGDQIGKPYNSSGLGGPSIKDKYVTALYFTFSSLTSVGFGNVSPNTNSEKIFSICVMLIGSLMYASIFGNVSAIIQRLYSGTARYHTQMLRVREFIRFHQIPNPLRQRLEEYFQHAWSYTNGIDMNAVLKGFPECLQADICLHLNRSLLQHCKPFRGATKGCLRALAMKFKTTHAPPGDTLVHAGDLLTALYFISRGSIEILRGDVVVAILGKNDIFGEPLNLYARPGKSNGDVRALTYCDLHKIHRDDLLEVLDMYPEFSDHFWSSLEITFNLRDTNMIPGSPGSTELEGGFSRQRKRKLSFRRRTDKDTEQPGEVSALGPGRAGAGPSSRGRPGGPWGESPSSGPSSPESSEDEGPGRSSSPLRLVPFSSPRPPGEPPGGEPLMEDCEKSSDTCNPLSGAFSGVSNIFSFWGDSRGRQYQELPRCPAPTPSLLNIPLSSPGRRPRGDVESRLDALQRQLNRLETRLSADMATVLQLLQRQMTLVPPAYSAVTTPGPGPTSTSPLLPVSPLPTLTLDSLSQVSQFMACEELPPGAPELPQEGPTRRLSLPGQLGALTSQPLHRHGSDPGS

[17] = Plasma pharmacokinetics in dogs; format: in vivo; details: dog, 3 mg/kg
Excerpt: The following pharmacokinetic parameters are computed from the individual plasma concentrations of the modified antihistamine compound using a noncompartmental approach and appropriate validated pharmacokinetic software (e.g., WinNonlin Professional). Concentration values reported as BLQ are set to zero. If concentration data are available, interim calculations are done (non-QC.d data) between periods if possible.
Dose proportionality following study medication is explored by analyzing natural log-transformed pharmacokinetic variables AUC(0-t), AUC(0-inf), and Cmax with a linear model including the natural log-transformed dose as covariates. […] The following parameters were estimated: • Cmax Maximum plasma concentration. • Tmax Time to maximum concentration. • Cmax and Tmax were reported directly from the concentration-time data. • AUC0-T Area under the plasma concentration-time curve from time […] to the last time point with measurable concentrations, estimated bylinear trapezoidal rule. • AUC0-00 Area under the plasma concentration-time curve extrapolated to infinity, calculated using the formula: AUC0-00=AUC0-1+C0/λ0 • Where Ct is the last measurable concentration in plasma and λz is the terminal phase elimination rate constant estimated using log-linear regression during the terminal elimination phase. […]

Structure (SMILES): CC(CC(=O)O)N1CCC(=C2c3ccc(F)cc3COc3ccccc32)CC1 (stereo not drawn) [Compound 37]
- percentage inhibition of specific binding [1]: 5.37%
- percentage inhibition of specific binding [2]: −9.30%
- inhibition at 1 µM [3]: 0.8%
- inhibition at 1 µM [4]: 8.92%
- percentage inhibition of specific binding [5]: 21.45%
- percentage inhibition of specific binding [6]: 21.10%
- percentage inhibition of specific binding [7]: 6.56%
- percentage inhibition of specific binding [8]: 6.49%
- inhibition at 1 µM [9]: -6.51%
- inhibition at 1 µM [10]: 1.51%
- inhibition at 1 µM [11]: 19.5%
- percentage inhibition of specific binding [12]: 4.31%

Structure (SMILES): CC(C)(CN1CCC(=C2c3ccc(F)cc3COc3ccccc32)CC1)C(=O)O [Compound 49a]
- unchanged drug and metabolites in urine [13]: has been found in the urine
- Group mean (=sd) number pf abdominal spasms recorded in a 25-minute period ([14]; oral 3 mg/kg): 31 ± 9.0
- Number of abdominal spasms recorded in a 25-minute period, individual animal data ([14]; oral 3 mg/kg, listed as HY-2901, 3 mg/kg): 42 and 17 and 26 and 29 and 31 and 39
- Group mean (=sd) number pf abdominal spasms recorded in a 25-minute period ([14]; oral 10 mg/kg): 25 ± 16.4
- Number of abdominal spasms recorded in a 25-minute period, individual animal data ([14]; oral 10 mg/kg, listed as HY-2901, 10 mg/kg): 57 and 23 and 20 and 24 and 19 and 9
- Group mean (=sd) number pf abdominal spasms recorded in a 25-minute period ([14]; oral 30 mg/kg): 17 ± 13.8
- Number of abdominal spasms recorded in a 25-minute period, individual animal data ([14]; oral 30 mg/kg, listed as HY-2901, 30 mg/kg): 37 and 20 and 23 and 1 (2×) and 18
- Kp [15]: 1
- IC50 [16]: 93 µM
- inhibition at 0.01 µM [16]: 10%
- half-life [17]: 252 min
- Tmax ([17]; after oral administration): 30 min
